Test results published in patent publication US20160355483A1, “COMPOUND BINDING TO PPARG BUT NOT ACTING AS PROMOTER AND PHARMACEUTICAL COMPOSITION FOR TREATING PPARG-RELATED DISEASES CONTAINING SAME AS ACTIVE INGREDIENT” (Hyundai Pharm Co., Ltd., priority 2014, published 2016).

Target: T1, PPARG (peroxisome proliferator activated receptor-gamma), GST-PPARG-LBD (Homo sapiens, UniProt P37231)
T1 construct: 15 μL of 5 nM GST-PPARG-LBD and 5 nM Tb-GST-antibody were added; purchased Invitrogen PV4894
T1 sequence (P37231 238-503 limits assumed): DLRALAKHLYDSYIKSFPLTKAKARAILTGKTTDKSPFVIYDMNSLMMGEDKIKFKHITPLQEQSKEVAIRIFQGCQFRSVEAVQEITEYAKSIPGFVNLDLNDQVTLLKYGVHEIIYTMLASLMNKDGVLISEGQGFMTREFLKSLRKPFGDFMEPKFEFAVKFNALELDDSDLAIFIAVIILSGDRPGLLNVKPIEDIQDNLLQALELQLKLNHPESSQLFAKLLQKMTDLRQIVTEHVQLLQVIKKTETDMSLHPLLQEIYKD
Test: LanthaScreen TR-FRET PPARG Competitive Binding Assay
Parameters: key: “+” indicates the degree of the binding activity, and as the number of “+” increases, the binding activity is stronger; ++: “+” indicates the degree of the binding activity, and as the number of “+” increases, the binding activity is stronger; +++: “+” indicates the degree of the binding activity, and as the number of “+” increases, the binding activity is stronger; ++++: “+” indicates the degree of the binding activity, and as the number of “+” increases, the binding activity is stronger
Conditions: degree of binding activity
Protocol: The following experiment was performed to evaluate the PPARG (peroxisome proliferator activated receptor-gamma) binding capacity and transcriptional activity of the compounds prepared in the examples of the invention. For the experiment, LanthaScreen™ TR-FRET PPARG Competitive Binding Assay Kit (PV4894, Invitrogen) was used according to the manufacturer's instruction. […] The mixture was loaded in a 384-well plate (Greiner, 784075) by 20 μL per well, followed by reaction at room temperature for 1 hour. Upon completion of the reaction, fluorescence value was measured by using Flexstation 3 (Molecular Devices) with time-resolved fluorescence (RFU) mode (excitation 1: 340 nm, emission 1: 518 nm, excitation 2: 340 nm, emission 2: 488 nm, integration delay 50 μs, integration 400 μs). The results were calculated by using 518 nm RFUs/488 nm RFUs ratio. The activity of the compounds of the invention was compared with that of the vehicle, which was calculated by ratio according to the formula [100%−compound of the example ratio/vehicle ratio]. At this time, the binding activity ratio to rosiglitazone was compared.

SMILES	Binding assay (1 μLM)
CC[C@H](NC(=O)c1ccc2c(c1)OCCN2Cc1ccc(-c2ccccc2C(=O)O)cc1)c1ccccc1 [Example 62, (S)-4′-((7-((1-phenylpropyl)carbamoyl)-2H-benzo[b][1,4]oxazine-4(3H)-yl)methyl)-[1,1′-biphenyl]-2-carboxylic acid]	+++
O=C(NCc1ccc([N+](=O)[O-])cc1)c1ccc2c(c1)OCCN2Cc1ccc(-c2ccccc2C(=O)O)cc1 [Example 66, 4′-((7-((4-nitrobenzyl)carbamoyl)-2H-benzo[b][1,4]oxazine-4(3H)-yl)methyl)-[1,1′-biphenyl]-2-carboxylic acid]	+
O=C(NCc1ccccc1)c1ccc2c(c1)OCCN2Cc1ccc(-c2ccccc2C(=O)O)cc1 [Example 67, 4′-((7-(benzylcarbamoyl)-2H-benzo[b][1,4]oxazine-4(38)-yl)methyl)-[1,1′-biphenyl]-2-carboxylic acid]	++
O=C(NCCc1ccccc1)c1ccc2c(c1)OCCN2Cc1ccc(-c2ccccc2C(=O)O)cc1 [Example 68, 4′-((7-(phenethylcarbamoyl)-2H-benzo[b][1,4]oxazine-4(3H)-yl)methyl)-[1,1′-biphenyl]-2-carboxylic acid]	++
O=C(NCc1ccco1)c1ccc2c(c1)OCCN2Cc1ccc(-c2ccccc2C(=O)O)cc1 [Example 69, 4′-((7-((furan-2-ylmethyl)carbamoyl)-2H-benzo[b][1,4]oxazine-4(3H)-yl)methyl)-[1,1′-biphenyl]-2-carboxylic acid-A]	+
C[C@H](NC(=O)c1ccc2c(c1)OCCN2Cc1ccc(-c2ccccc2C(=O)O)cc1)c1cccc2ccccc12 [Example 70, (S)-4′-((7-((1-(naphthalene-1-yl)ethyl)carbamoyl)-2H-benzo[b][1,4]oxazine-4(3H)-yl)methyl)-[1,1′-biphenyl]-2-carboxylic acid]	++
COC(=O)c1ccc(CNC(=O)c2ccc3c(c2)OCCN3Cc2ccc(-c3ccccc3C(=O)O)cc2)cc1 [Example 71, 4′-((7-((4-(methoxycarbonyl)benzyl)carbamoyl)-2H-benzo[b][1,4]oxazine-4(3H)-yl)methyl)-[1,1′-biphenyl]-2-carboxylic acid]	+
COc1cccc(CNC(=O)c2ccc3c(c2)OCCN3Cc2ccc(-c3ccccc3C(=O)O)cc2)c1 [Example 72, 4′-((7-((3-methoxybenzyl)carbamoyl)-2H-benzo[b][1,4]oxazine-4(3H)-yl)methyl)-[1,1′-biphenyl]-2-carboxylic acid]	+
O=C(NCc1ccc(Br)cc1)c1ccc2c(c1)OCCN2Cc1ccc(-c2ccccc2C(=O)O)cc1 [Example 73, 4′-((7-((4-bromobenzyl)carbamoyl)-2H-benzo[b][1,4]oxazine-4(3H)-yl)methyl)-[1,1′-biphenyl]-2-carboxylic acid]	+
O=C(NC1COc2ccccc2C1)c1ccc2c(c1)OCCN2Cc1ccc(-c2ccccc2C(=O)O)cc1 (centres unmarked) [Example 82]	+++
C[C@H](NC(=O)c1ccc2c(c1)OCCN2Cc1ccc(-c2ccccc2C(=O)O)cc1)c1c(F)cccc1F [Example 83, (S)-4′-((7-((1-(2,6-fluorophenyl)ethyl)carbamoyl)-2H-benzo[b][1,4]oxazine-4(3H)-yl)methyl)-[1,1′-biphenyl]-2-carboxylic acid]	++

Now from value to molecule:

Binding assay (1 μLM)	SMILES
++	C[C@H](NC(=O)c1ccc2c(c1)OCCN2Cc1ccc(-c2ccccc2C(N)=O)cc1)c1ccccc1 [Example 59, (S)-4-((2′-carbamoyl-[1,1′-biphenyl]-4-yl)methyl)-N-(1-phenylethyl)-3,4-dihydro-2H-benzo[b][1, 4]oxazine-7-carboxamide]
++	C[C@H](NC(=O)c1ccc2c(c1)OCCN2Cc1ccc(-c2ccccc2C(=O)O)cc1)c1ccc(Br)cc1 [Example 61, (S)-4′-((7-((1-(4-bromophenyl)ethyl)carbamoyl)-2H-benzo[b][1,4]oxazine-4(3H)-yl)methyl)-[1,1′-biphenyl]-2-carboxylic acid]
+	C[C@H](NC(=O)c1ccc2c(c1)OCCN2Cc1ccc(-c2ccccc2C(=O)O)cc1)c1ccc(F)cc1 [Example 63, (S)-4′-((7-((1-(4-fluorophenyl)ethyl)carbamoyl)-2H-benzo[b][1,4]oxazine-4(3H)-yl)methyl)-[1,1′-biphenyl]-2-carboxylic acid]
+	C[C@H](NC(=O)c1ccc2c(c1)OCCN2Cc1ccc(-c2ccccc2C(=O)O)cc1)c1ccc(Cl)cc1 [Example 64, (S)-4′-((7-((1-(4-chlorophenyl)ethyl)carbamoyl)-2H-benzo[b][1,4]oxazine-4(3H)-yl)methyl)-[1,1′-biphenyl]-2-carboxylic acid]
++	C[C@H](NC(=O)c1ccc2c(c1)OCCN2Cc1ccc(-c2ccccc2C(=O)O)cc1)c1cccc(Cl)c1 [Example 65, (S)-4′-((7-((1-(3-chlorophenyl)ethyl)carbamoyl)-2H-benzo[b][1,4]oxazine-4(3H)-yl)methyl)-[1,1′-biphenyl]-2-carboxylic acid]
+++	C[C@H](NC(=O)c1ccc2c(c1)OCCN2Cc1ccc(-c2ccccc2C(=O)O)cc1)c1ccc(OC(F)(F)F)cc1 [Example 75, (S)-4′-((7-((1-(4-(trifluoromethoxy)phenyl)ethyl)carbamoyl)-2H-benzo[b][1,4]oxazine-4(3H)-yl)methyl)-[1,1′-biphenyl]-2-carboxylic acid]
+++	C[C@H](NC(=O)c1ccc2c(c1)OCCN2Cc1ccc(-c2ccccc2C(=O)O)cc1)c1ccc(C(F)(F)F)cc1 [Example 76, (S)-4′-((7-((1-(4-(trifluoromethyl)phenyl)ethyl)carbamoyl)-2H-benzo[b][1,4]oxazine-4(3H)-yl)methyl)-[1,1′-biphenyl]-2-carboxylic acid]
+++	C[C@H](NC(=O)c1ccc2c(c1)OCCN2Cc1ccc(-c2ccccc2C(=O)O)cc1)c1ccc(SC(F)(F)F)cc1 [Example 77, (S)-4′-((7-((1-(4-((trifluoromethyl)thio)phenyl)ethyl)carbamoyl)-2H-benzo[b][1,4]oxazine-4(3H)-yl)methyl)-[1,1′-biphenyl]-2-carboxylic acid]
++	C[C@H](NC(=O)c1ccc2c(c1)OCCN2Cc1ccc(-c2ccccc2C(=O)O)cc1)c1ccc(C(C)(C)C)cc1 [Example 78, (S)-4′-((7-((1-(4-(tert-butyl)phenyl)ethyl)carbamoyl)-2H-benzo[b][1,4]oxazine-4(3H)-yl)methyl)-[1,1′-biphenyl]-2-carboxylic acid]
++	Cc1cc(F)ccc1[C@H](C)NC(=O)c1ccc2c(c1)OCCN2Cc1ccc(-c2ccccc2C(=O)O)cc1 [Example 79, (S)-4′-((7-((1-(4-fluoro-2-methylphenyl)ethyl)carbamoyl)-2H-benzo[b][1,4]oxazine-4(3H)-yl)methyl)-[1,1′-biphenyl]-2-carboxylic acid]
++	Cc1ccc([C@H](C)NC(=O)c2ccc3c(c2)OCCN3Cc2ccc(-c3ccccc3C(=O)O)cc2)cc1F [Example 80, (S)-4′-((7-((1-(3-fluoro-4-methylphenyl)ethyl)carbamoyl)-2H-benzo[b][1,4]oxazine-4(3H)-yl)methyl)-[1,1′-biphenyl]-2-carboxylic acid]
+++	C[C@@H](NC(=O)c1ccc2c(c1)OCCN2Cc1ccc(-c2ccccc2C(=O)O)cc1)c1ccc(C#N)cc1 [Example 81, (R)-4′-((7-((1-(4-cyanophenyl)ethyl)carbamoyl)-2H-benzo[b][1,4]oxazine-4(3H)-yl)methyl)-[1,1′-biphenyl]-2-carboxylic acid]
++	C[C@H](NC(=O)c1ccc2c(c1)OCCN2Cc1ccc(-c2ccccc2C(=O)O)cc1)c1cccc(F)c1 [Example 84, (S)-4′-((7-((1-(3-fluorophenyl)ethyl)carbamoyl)-2H-benzo[b][1,4]oxazine-4(3H)-yl)methyl)-[1,1′-biphenyl]-2-carboxylic acid]
+++	C[C@H](NC(=O)c1ccc2c(c1)OCCN2Cc1ccc(-c2ccccc2C(=O)O)cc1)c1cccc(OC(F)(F)F)c1 [Example 85, (S)-4′-((7-((1-(3-(trifluoromethoxy)phenyl)ethyl)carbamoyl)-2H-benzo[b][1,4]oxazine-4(3H)-yl)methyl)-[1,1′-biphenyl]-2-carboxylic acid]
+++	C[C@H](NC(=O)c1ccc2c(c1)OCCN2Cc1ccc(-c2ccccc2C(=O)O)cc1)c1cccc(C(F)(F)F)c1 [Example 86, (S)-4′-((7-((1-(3-(trifluoromethyl)phenyl)ethyl)carbamoyl)-2H-benzo[b][1,4]oxazine-4(3H)-yl)methyl)-[1,1′-biphenyl]-2-carboxylic acid]
